This is an account of results in patent US11964988B2, “Fused heterocyclic compounds as RET kinase inhibitors” (ARRAY BIOPHARMA INC., priority 2018, dated 2024).

Numbering of substitutions follows the chain as printed. pIC50: −log10 of the molar value.

Test [1] addresses G810S mutant RET kinase (Homo sapiens, UniProt P07949, G810S). Put plainly: biochemical.
The target of test [2] is G810R mutant RET kinase (Homo sapiens, UniProt P07949, G810R). Put plainly: biochemical.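 Further: HTRF KinEASE-TK enzymatic assay with 1 nM recombinant RET G810R, 1 h at 22 °C, dual-wavelength ratiometric readout, 100% control without compound, 0% from pre-quenched reactions.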
The target in test [3] is T1, HEK-293 cells expressing a G810R mutant RET Kif5b-RET fusion protein (Homo sapiens, UniProt P07949, G810R).
T1 construct: KIF5B (N-terminal portion incl. coiled-coil); expressed in transfected cells; host or cells: HEK-293; the other entry of the earlier key: KIF5B (P33176, Kinesin-1 heavy chain)
T1 sequence (P07949 713-1063 G810R limits assumed): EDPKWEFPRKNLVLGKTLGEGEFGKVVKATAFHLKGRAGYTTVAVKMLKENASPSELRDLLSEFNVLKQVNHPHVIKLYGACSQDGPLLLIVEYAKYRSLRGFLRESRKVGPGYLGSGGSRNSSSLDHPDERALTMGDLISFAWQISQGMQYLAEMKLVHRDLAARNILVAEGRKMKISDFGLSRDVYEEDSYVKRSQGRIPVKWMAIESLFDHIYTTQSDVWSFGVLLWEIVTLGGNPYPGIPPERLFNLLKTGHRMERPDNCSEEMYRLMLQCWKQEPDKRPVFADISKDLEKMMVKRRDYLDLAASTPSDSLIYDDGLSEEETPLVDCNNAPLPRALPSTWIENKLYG
Put plainly: RET G810R Mutant Cell Assay (phospho-RET Tyr1062). The class given is cell-based. The note with it: HEK-293 Kif5b-RET G810R, 1 hour incubation, phospho-RET normalized to GAPDH. A digest of the protocol: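 Engineered HEK-293 cells were treated 1 h with compound in DMEM, 0.5% DMSO final, then fixed, permeabilized and immunostained for phospho-RET Tyr1062 and GAPDH. In-cell fluorescence pRET signal was normalized to GAPDH; IC50 taken from a 4-parameter logistic fit of percent of control at 50 POC.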

Test [4] deals with T2, HEK-293 cells expressing a G810S mutant RET Kif5b-RET fusion protein (Homo sapiens, UniProt P07949, G810S).
T2 construct: KIF5B (N-terminal portion incl. coiled-coil); expressed in transfected cells; host or cells: HEK-293
T2 sequence (P07949 713-1063 G810S limits assumed): T1 sequence (P07949 713-1063 G810R limits assumed) with R98S
Put plainly: RET G810S Mutant Cell Assay (phospho-RET Tyr1062). The class given is cell-based. Conditions: HEK-293 Kif5b-RET G810S, 1 hour incubation, phospho-RET normalized to GAPDH. Here is the method:
The cellular potency of compounds inhibiting RET kinase were determined in HEK-293 cells expressing a G810R or G810S mutant RET Kif5b-RET fusion protein. Briefly, HEK-293 cells expressing a G810R or G810S mutant RET Kif5b-RET fusion protein were plated at 50K cells/well in 96 well poly-D-Lysine coated plates the day prior to the assay. The cells were incubated for 1 hour with test compound in DMEM (Dulbecco's Modified Eagle Medium) at a final DMSO concentration of 0.5%. […] After 1 hour the media was removed, the cells were fixed with 3.8% formaldehyde for 20 min, washed with PBS, and permeabilized for 10 min with 100% methanol. The plates were then washed with PBS-0.05% Tween20, and blocked with LI-COR Blocking solution (LI-COR Catalog No. 927-40000) for 1 hour. Plates were washed with PBS-0.05% Tween20, then incubated with anti-phospho-RET (Tyr1062) (Santa Cruz Catalog No. sc-20252-R) antibody and anti-GAPDH (Millipore Catalog No. MAB374) antibody for 2 hours. The plates were washed with PBS-0.05% Tween20, and incubated with anti-rabbit 680 (Molecular Probes Catalog No. A21109) and anti-mouse 800 (LI-COR Catalog No. 926-32210) secondary antibodies for 1 hour. All antibodies were diluted in LI-COR Block containing 0.05% Tween. The plates were washed with PBS-0.05% Tween20,100 μL PBS was added to each well, and the plates were read on a LI-COR Aerius fluorescent plate reader. The phospho-RET signal was normalized to the GAPDH signal. […] The POC values are fit to a 4 parameter logistic curve. The IC50 value is the point where the curve crosses 50 POC.

Test [5] has as its target RET kinase V804M (Homo sapiens, UniProt P07949, V804M). Put plainly: RET Enzyme Assay (CisBio HTRF KinEASE-TK), V804M. Format: biochemical. The note with it: read-out: RET V804M Enz FRET IC50.
Description: (§1) The potency of compounds inhibiting several different RET kinase forms (Wild Type, V804M, G810R, & G810S) were determined using CisBio's HTRF® KinEASE™-TK assay technology. […] After a 1 hour incubation at 22° C., the extent of reaction was determined using a PerkinElmer EnVision multimode plate reader via HTRF dual wavelength detection, and the percent of control (POC) was calculated using a ratiometric emission factor. One hundred POC was determined using DMSO only samples (no compound present), and 0 POC was determined using pre-quenched control reactions.
The target in test [6] is RET kinase Wild Type (Homo sapiens, UniProt P07949). Put plainly: biochemical.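 Further: HTRF kinase activity assay on RET enzyme, 1 h reaction at 22 °C, dual-wavelength readout as percent of control, DMSO-only wells as 100%, pre-quenched reactions as 0%.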
Description: as §1
In test [7] the target is T3, HEK-293 cells expressing a Kif5b-RET fusion protein (Homo sapiens, UniProt P07949).
T3 construct: KIF5B (N-terminal portion incl. coiled-coil); expressed in transfected cells; host or cells: HEK-293; the other entry of the earlier key: KIF5B (P33176, Kinesin-1 heavy chain)
T3 sequence (P07949 713-1063 limits assumed): T1 sequence (P07949 713-1063 G810R limits assumed) with R98G
Put plainly: RET Cell Assay (phospho-RET Tyr1062). The class given is cell-based. Conditions: HEK-293 Kif5b-RET, 1 hour incubation, phospho-RET normalized to GAPDH; read-out: KIF5B-RET pTYR1062 Cell IC50. A digest of the protocol:
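Kif5b-RET HEK-293 cells treated 1 hour with compound in DMEM (0.5% DMSO final), then fixed and immunostained for phospho-RET Tyr1062, normalized to GAPDH by infrared fluorescence. IC50 where the 4-parameter logistic fit of POC crosses 50.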

Chain of RET kinase V804M (P07949 29-1114 V804M): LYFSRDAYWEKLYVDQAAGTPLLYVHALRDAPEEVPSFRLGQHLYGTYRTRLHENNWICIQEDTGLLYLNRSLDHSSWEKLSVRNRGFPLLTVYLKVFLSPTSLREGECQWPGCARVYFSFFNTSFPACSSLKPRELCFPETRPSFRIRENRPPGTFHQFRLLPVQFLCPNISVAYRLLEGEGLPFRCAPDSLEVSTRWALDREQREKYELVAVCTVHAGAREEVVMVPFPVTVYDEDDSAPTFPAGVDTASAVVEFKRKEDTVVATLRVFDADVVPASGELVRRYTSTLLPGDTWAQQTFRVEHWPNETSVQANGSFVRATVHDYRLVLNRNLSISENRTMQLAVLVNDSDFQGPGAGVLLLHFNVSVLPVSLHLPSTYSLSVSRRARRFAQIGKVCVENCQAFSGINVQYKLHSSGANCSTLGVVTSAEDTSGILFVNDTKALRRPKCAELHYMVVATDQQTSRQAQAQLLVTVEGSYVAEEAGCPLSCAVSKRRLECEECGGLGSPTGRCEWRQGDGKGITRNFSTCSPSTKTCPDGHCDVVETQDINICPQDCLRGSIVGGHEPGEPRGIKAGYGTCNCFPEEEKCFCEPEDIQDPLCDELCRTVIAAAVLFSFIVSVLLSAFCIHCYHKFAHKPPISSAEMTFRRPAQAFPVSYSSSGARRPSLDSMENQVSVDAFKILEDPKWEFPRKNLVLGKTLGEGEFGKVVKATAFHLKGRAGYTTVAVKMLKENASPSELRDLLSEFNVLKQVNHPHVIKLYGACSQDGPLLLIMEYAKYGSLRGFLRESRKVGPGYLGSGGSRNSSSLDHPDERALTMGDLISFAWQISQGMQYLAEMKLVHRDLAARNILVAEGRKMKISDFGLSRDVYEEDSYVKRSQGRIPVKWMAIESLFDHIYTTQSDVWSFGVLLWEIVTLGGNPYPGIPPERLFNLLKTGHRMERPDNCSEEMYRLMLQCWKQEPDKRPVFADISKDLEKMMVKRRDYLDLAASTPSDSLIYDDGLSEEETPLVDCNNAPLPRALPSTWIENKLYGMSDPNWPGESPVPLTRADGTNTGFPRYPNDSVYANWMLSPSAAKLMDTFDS
Chain of G810R mutant RET kinase (P07949 29-1114 G810R): as the sequence (P07949 29-1114 V804M) above, with M776V, G782R counted along it
Chain of G810S mutant RET kinase (P07949 29-1114 G810S): as the sequence (P07949 29-1114 V804M) above, with M776V, G782S counted along it
Chain of RET kinase Wild Type (P07949 29-1114): as the sequence (P07949 29-1114 V804M) above, with M776V counted along it

As to `COC(=O)c1ccc2c(Cl)c3n(c2c1)C(=O)NCc1c-3c2c(N)ncnc2n1C(C)C` [Example 75, Methyl 1-amino-14-chloro-5-isopropyl-8-oxo-5,6,7,8-tetrahydropyrimido[5″,4″:4′,5′]pyrrolo[2′,3′:5,6][1,3]diazepino[1,7-a]indole-11-carboxylate], the pIC50 in test [1] was 7.29; in test [2] it was 6.38; in test [3], 6.77; in test [4] it was 6.72; in test [5] it was 5.69; in test [6], 7.09.
As for `COC(=O)c1ccc(-n2c3c(c4c(N)ncnc42)-c2noc(C4CC4)c2C(O)CC3)cc1` (stereo not drawn) [Example 113, Methyl 4-(11-amino-3-cyclopropyl-4-hydroxy-5,6-dihydroisoxazolo[4″,3″:6′,7′]cyclohepta[1′,2′:4,5]pyrrolo[2,3-d]pyrimidin-7(4H)-yl)benzoate 2,2,2-trifluoroacetate], the pIC50 was 6.29 in test [7]; 7.20 in test [1]; 6.97 in test [2]; 6.56 in test [4]; 6.77 in test [5]; 6.99 in test [6].
Turning to `CC(C)n1c2c(c3c(N)ncnc31)-c1cc3ccc(C(=O)Nc4ccn(-c5ccccc5)n4)cc3n1CCC2` [Example 100, 1-amino-5-isopropyl-N-(1-phenyl-1H-pyrazol-3-yl)-5,6,7,8-tetrahydropyrimido[5″,4″:4′,5′]pyrrolo[3′,2′: 3,4]azepino[1,2-a]indole-11-carboxamide], the pIC50 was 8.00 in test [7]; 6.04 in test [1]; 5.79 in test [2]; 7.82 in test [4]; 5.54 in test [5]; 6.63 in test [6].
Take `Nc1ncnc2c1c1c(n2C2CCOC2)CCC(O)c2c-1noc2C1CC1` (stereo not drawn) [Example 121, 11-amino-3-cyclopropyl-7-(tetrahydrofuran-3-yl)-4,5,6,7-tetrahydro-isoxazolo[4″,3″:6′,7′]cyclohepta[1′,2′:4,5] pyrrolo[2,3-d]pyrimidin-4-ol]: the pIC50 is 7.13 in test [7]; 7.08 in test [1]; 7.06 in test [2]; 6.93 in test [4]; 6.92 in test [5]; 7.39 in test [6].
With `CC1(n2c3c(c4c(N)ncnc42)-c2noc(C4CC4)c2C(O)CC3)CC1` (stereo not drawn) [Example 149, 11-Amino-3-cyclopropyl-7-(1-methylcyclopropyl)-4,5,6,7-tetrahydroisoxazolo[4″,3″:6′,7′]cyclohepta[1′,2′:4,5]pyrrolo[2,3-d]pyrimidin-4-ol], the negative-log IC50 (pIC50) is 8.70 in test [7]; 7.39 in test [1]; 7.15 in test [2]; 7.70 in test [4]; 7.66 in test [5]; 8.15 in test [6].
On to `Nc1ncnc2c1c1c(n2C(CF)CF)CCC(O)c2c-1noc2C1CC1` (stereo not drawn) [Example 122, 11-amino-3-cyclopropyl-7-(1,3-difluoropropan-2-yl)-4,5,6,7-tetrahydro-isoxazolo[4″,3″:6′,7′]cyclohepta[1′,2′:4,5] pyrrolo[2,3-d]pyrimidin-4-ol], for which the pIC50 is 7.51 in test [7]; 7.59 in test [1]; 7.55 in test [2]; 7.11 in test [4]; 7.42 in test [5]; 7.85 in test [6].
As for `Nc1ncnc2c1c1c(n2[C@@H]2C[C@@H](O)[C@@H](O)C2)CCC(O)c2c-1noc2C1CC1` (stereo partly drawn) [Example 130, (1r,2s,4s)-4-(11-amino-3-cyclopropyl-4-hydroxy-5,6-dihydroisoxazolo[4″,3″:6′,7′]cyclohepta[1′,2′:4,5]pyrrolo[2,3-d]pyrimidin-7(4H)-yl)cyclopentane-1,2-diol], the pIC50 is 7.47 in test [7]; 7.49 in test [1]; 7.40 in test [2]; 6.88 in test [4]; 7.19 in test [5]; 7.92 in test [6].
Consider `Nc1ncnc2c1c1c(n2C2CCC(O)C2)CCC(=O)c2c-1noc2C1CC1` (mixture of isomers) [Example 128, 11-Amino-3-cyclopropyl-7-(3-hydroxycyclopentyl)-6,7-dihydroisoxazolo[4″,3″:6′,7′]cyclohepta[1′,2′:4,5]pyrrolo[2,3-d]pyrimidin-4(5H)-one 2,2,2-trifluoroacetate], for which the pIC50 in test [7] was 6.80; in test [1], 6.80; in test [2], 7.01; in test [4], 6.36; in test [5], 6.46; in test [6], 7.06.
On to `Nc1ncnc2c1c1c(n2-c2ccccc2)CNC(=O)c2c-1noc2C1CC1` [Example 110, 11-amino-3-cyclopropyl-7-phenyl-6,7-dihydroisoxazolo[4,3-c]pyrimido[5′,4′:4,5]pyrrolo[3,2-e]azepin-4(5H)-one 2,2,2-trifluoroacetate], for which the pIC50 was 6.55 in test [1]; 6.67 in test [2]; 6.27 in test [3]; 6.70 in test [4]; 5.76 in test [5]; 6.39 in test [6].
As for `CNC(=O)c1ccc2c(Cl)c3n(c2c1)C(=O)NCc1c-3c2c(N)ncnc2n1C(C)C` [Example 74, 1-Amino-14-chloro-5-isopropyl-N-methyl-8-oxo-5,6,7,8-tetrahydropyrimido[5″,4″:4′,5′]pyrrolo[2′,3′:5,6][1,3]diazepino[1,7-a]indole-11-carboxamide], the pIC50 was 6.54 in test [1]; 5.68 in test [2]; 5.53 in test [3]; 6.04 in test [4]; 5.22 in test [5]; 6.45 in test [6].

As a reminder, the pIC50 is the IC50 on a negative log10 scale, so that one unit is a factor of ten.
